Source: the supplement of paper PMC10307832

Key:
Assay in all cases: relative viability (nuclei count vs DMSO), 5 days (fraction); higher = more cells survive
201T = test system: 201T
Method in brief: (§1)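 The day after seeding in 1536-well plates, lung cancer cell lines were treated by pin tool with a single drug, or with a fixed anchor-drug dose together with five library-drug doses (not always all listed) in √10 steps. After 5 days, a combined fix-and-stain solution (final 0.05% Triton X-100, 1% formaldehyde, 1 ug/ml Hoechst) was added. Nuclei counted on 4× images gave relative viability as treated counts over vehicle counts, reported as the median of duplicate plates.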

BEN = test system: BEN
Method in brief: as §1

EMC-BAC-2 = test system: EMC-BAC-2
Method in brief: as §1

HARA = test system: HARA
Method in brief: as §1

HCC-44 = test system: HCC-44
Method in brief: as §1

LCLC-103H = test system: LCLC-103H
Method in brief: as §1

LOU-NH91 = test system: LOU-NH91
Method in brief: as §1

NCI-H1395 = test system: NCI-H1395
Method in brief: as §1

NCI-H1666 = test system: NCI-H1666
Method in brief: as §1

NCI-H1993 = test system: NCI-H1993
Method in brief: as §1

NCI-H2009 = test system: NCI-H2009
Method in brief: as §1

NCI-H2023 = test system: NCI-H2023
Method in brief: as §1

Clc1ccc(Nc2nnc(Cc3ccncc3)c3ccccc23)cc1 [Vatalanib] + Cc1cc(Nc2cc(N3CCN(C)CC3)nc(Sc3ccc(NC(=O)C4CC4)cc3)n2)n[nH]1 [Tozasertib] (partner 0.1 µM)
relative viability (201T; first compound 0.04 µM): 0.932 | relative viability (201T; first compound 0.1265 µM): 0.943 | relative viability (201T; first compound 0.4 µM): 0.985 | relative viability (201T; first compound 1.265 µM): 0.896 | relative viability (201T; first compound 4 µM): 0.916 | relative viability (BEN; first compound 0.04 µM): 0.464 | relative viability (BEN; first compound 0.1265 µM): 0.535 | relative viability (BEN; first compound 0.4 µM): 0.557 | relative viability (BEN; first compound 1.265 µM): 0.439 | relative viability (BEN; first compound 4 µM): 0.412 | relative viability (EMC-BAC-2; first compound 0.04 µM): 0.218 | relative viability (EMC-BAC-2; first compound 0.1265 µM): 0.302 | relative viability (EMC-BAC-2; first compound 0.4 µM): 0.308 | relative viability (EMC-BAC-2; first compound 1.265 µM): 0.264 | relative viability (EMC-BAC-2; first compound 4 µM): 0.305 | relative viability (HARA; first compound 0.04 µM): 0.0991 | relative viability (HARA; first compound 0.1265 µM): 0.11 | relative viability (HARA; first compound 0.4 µM): 0.108 | relative viability (HARA; first compound 1.265 µM): 0.0945 | relative viability (HARA; first compound 4 µM): 0.112 | relative viability (HCC-44; first compound 0.04 µM): 1.1 | relative viability (HCC-44; first compound 0.1265 µM): 0.887 | relative viability (HCC-44; first compound 0.4 µM): 0.91 | relative viability (HCC-44; first compound 1.265 µM): 0.907 | relative viability (HCC-44; first compound 4 µM): 0.815 | relative viability (LCLC-103H; first compound 0.04 µM): 0.482 | relative viability (LCLC-103H; first compound 0.1265 µM): 0.518 | relative viability (LCLC-103H; first compound 0.4 µM): 0.532 | relative viability (LCLC-103H; first compound 1.265 µM): 0.503 | relative viability (LCLC-103H; first compound 4 µM): 0.502 | relative viability (LOU-NH91; first compound 0.04 µM): 0.768 | relative viability (LOU-NH91; first compound 0.1265 µM): 0.634 | relative viability (LOU-NH91; first compound 1.265 µM): 0.652 | relative viability (LOU-NH91; first compound 4 µM): 0.621 | relative viability (NCI-H1395; first compound 0.04 µM): 0.734 | relative viability (NCI-H1395; first compound 0.1265 µM): 0.75 | relative viability (NCI-H1395; first compound 0.4 µM): 0.747 | relative viability (NCI-H1395; first compound 1.265 µM): 0.648 | relative viability (NCI-H1395; first compound 4 µM): 0.792 | relative viability (NCI-H1666; first compound 0.04 µM): 0.617 | relative viability (NCI-H1666; first compound 0.1265 µM): 0.569 | relative viability (NCI-H1666; first compound 0.4 µM): 0.615 | relative viability (NCI-H1666; first compound 1.265 µM): 0.568 | relative viability (NCI-H1666; first compound 4 µM): 0.55 | relative viability (NCI-H1993; first compound 0.04 µM): 0.563 | relative viability (NCI-H1993; first compound 0.1265 µM): 0.566 | relative viability (NCI-H1993; first compound 0.4 µM): 0.608 | relative viability (NCI-H1993; first compound 1.265 µM): 0.542 | relative viability (NCI-H1993; first compound 4 µM): 0.592 | relative viability (NCI-H2009; first compound 0.04 µM): 0.752 | relative viability (NCI-H2009; first compound 0.1265 µM): 0.678 | relative viability (NCI-H2009; first compound 0.4 µM): 0.864 | relative viability (NCI-H2009; first compound 1.265 µM): 0.739 | relative viability (NCI-H2009; first compound 4 µM): 0.682 | relative viability (NCI-H2023; first compound 0.04 µM): 0.374 | relative viability (NCI-H2023; first compound 0.1265 µM): 0.377 | relative viability (NCI-H2023; first compound 0.4 µM): 0.424 | relative viability (NCI-H2023; first compound 1.265 µM): 0.287
